Laboratory results as given in ChEMBL document CHEMBL1132266, “Synthesis and evaluation of 1-position-modified inositol 1,4,5-trisphosphate analogs” (Bioorg Med Chem Lett, 1999).

Target: Inositol 1,4,5-trisphosphate-gated calcium channel ITPR3 (Homo sapiens, UniProt Q14573)
Experiment: Dissociation constant of compound was measured in IP3-binding domain(IBD) of human Inositol 1,4,5-trisphosphate receptor at pH 7.4

Inositol 1,4,5-trisphosphate-gated calcium channel ITPR3, sequence (Q14573 whole entry, the tested form may be a part): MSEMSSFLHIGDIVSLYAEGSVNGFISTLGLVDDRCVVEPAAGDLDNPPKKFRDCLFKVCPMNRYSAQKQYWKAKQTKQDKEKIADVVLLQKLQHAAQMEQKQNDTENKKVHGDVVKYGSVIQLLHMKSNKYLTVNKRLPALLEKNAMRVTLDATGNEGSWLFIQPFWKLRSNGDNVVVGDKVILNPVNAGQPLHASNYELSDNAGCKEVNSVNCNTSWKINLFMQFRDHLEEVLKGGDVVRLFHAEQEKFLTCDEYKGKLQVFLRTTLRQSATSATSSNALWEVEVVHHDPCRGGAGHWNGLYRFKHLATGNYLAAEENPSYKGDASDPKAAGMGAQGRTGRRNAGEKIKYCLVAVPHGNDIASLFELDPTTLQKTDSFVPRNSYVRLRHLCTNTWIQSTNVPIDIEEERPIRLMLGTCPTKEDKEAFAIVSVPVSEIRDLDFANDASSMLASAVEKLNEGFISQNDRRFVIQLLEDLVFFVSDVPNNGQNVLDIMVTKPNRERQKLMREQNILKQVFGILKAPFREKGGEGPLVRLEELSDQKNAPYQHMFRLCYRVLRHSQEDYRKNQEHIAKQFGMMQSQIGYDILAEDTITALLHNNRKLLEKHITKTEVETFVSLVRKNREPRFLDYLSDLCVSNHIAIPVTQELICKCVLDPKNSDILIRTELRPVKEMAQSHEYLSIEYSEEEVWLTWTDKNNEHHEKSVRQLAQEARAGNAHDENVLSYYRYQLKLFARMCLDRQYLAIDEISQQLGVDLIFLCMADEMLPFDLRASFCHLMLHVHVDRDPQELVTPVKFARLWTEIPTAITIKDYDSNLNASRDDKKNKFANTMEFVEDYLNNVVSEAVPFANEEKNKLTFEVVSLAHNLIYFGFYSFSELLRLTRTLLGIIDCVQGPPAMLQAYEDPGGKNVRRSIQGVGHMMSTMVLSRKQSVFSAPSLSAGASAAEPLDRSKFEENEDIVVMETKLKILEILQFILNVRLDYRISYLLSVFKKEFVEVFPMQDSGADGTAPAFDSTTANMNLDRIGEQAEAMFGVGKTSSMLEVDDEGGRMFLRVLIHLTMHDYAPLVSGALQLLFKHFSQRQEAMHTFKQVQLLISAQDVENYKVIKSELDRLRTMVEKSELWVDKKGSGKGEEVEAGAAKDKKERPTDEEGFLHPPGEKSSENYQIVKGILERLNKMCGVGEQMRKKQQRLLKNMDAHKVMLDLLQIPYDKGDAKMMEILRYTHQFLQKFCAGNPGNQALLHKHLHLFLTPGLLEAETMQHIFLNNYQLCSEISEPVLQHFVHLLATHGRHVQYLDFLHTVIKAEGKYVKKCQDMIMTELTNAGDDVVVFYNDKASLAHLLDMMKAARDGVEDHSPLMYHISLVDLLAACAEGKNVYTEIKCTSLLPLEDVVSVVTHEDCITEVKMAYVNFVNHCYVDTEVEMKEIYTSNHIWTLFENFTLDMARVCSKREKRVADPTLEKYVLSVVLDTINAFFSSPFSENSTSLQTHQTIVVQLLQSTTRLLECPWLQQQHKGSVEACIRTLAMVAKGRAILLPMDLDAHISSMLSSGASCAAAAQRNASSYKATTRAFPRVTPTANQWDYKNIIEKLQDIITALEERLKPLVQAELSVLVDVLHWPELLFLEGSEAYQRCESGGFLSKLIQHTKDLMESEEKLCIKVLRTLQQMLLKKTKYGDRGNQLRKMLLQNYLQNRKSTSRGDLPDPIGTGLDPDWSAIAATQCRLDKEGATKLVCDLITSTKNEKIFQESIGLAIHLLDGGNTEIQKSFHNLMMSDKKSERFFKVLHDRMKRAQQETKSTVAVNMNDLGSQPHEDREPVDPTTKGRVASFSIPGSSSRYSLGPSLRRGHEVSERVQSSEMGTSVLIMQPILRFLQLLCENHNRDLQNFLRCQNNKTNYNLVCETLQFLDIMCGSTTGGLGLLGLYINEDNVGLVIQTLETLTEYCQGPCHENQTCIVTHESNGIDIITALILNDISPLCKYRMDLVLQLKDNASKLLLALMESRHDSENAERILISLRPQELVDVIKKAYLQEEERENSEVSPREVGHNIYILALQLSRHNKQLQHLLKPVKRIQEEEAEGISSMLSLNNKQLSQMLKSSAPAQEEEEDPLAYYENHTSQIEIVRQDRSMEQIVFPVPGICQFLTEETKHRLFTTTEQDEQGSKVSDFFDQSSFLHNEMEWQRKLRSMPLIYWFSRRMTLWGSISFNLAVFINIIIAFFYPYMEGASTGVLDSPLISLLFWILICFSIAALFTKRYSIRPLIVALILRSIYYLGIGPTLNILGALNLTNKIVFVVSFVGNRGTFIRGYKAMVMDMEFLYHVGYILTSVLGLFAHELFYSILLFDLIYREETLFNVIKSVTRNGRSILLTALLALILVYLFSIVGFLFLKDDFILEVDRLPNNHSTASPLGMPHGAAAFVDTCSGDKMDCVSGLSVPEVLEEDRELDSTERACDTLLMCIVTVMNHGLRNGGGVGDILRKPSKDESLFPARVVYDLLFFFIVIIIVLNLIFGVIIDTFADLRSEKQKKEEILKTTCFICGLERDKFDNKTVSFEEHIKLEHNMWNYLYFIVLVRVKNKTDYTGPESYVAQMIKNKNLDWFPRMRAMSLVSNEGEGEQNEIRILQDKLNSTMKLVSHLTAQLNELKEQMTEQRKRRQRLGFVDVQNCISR

Kd [nM]	SMILES
1.17	CN(C)c1ccc(C(=C2C=CC(=[N+](C)C)C=C2)c2ccc(C(=O)NCCCOP(=O)(O)O[C@@H]3[C@H](O)[C@H](O)[C@@H](OP(=O)(O)O)[C@H](OP(=O)(O)O)[C@H]3O)cc2)cc1
1120	NCCCOP(=O)(O)O[C@@H]1[C@H](O)[C@H](O)[C@@H](OP(=O)(O)O)[C@H](OP(=O)(O)O)[C@H]1O
188	O=C(NCCCOP(=O)(O)O[C@@H]1[C@H](O)[C@H](O)[C@@H](OP(=O)(O)O)[C@H](OP(=O)(O)O)[C@H]1O)Oc1ccc2c(c1)Oc1cc(O)ccc1C21OC(=O)c2ccccc21 (stereo partly drawn)
